Results published in patent US9464120B2, “Compositions for treatment of celiac disease” (ImmusanT, Inc., priority 2008, dated 2016).
Where two headings read alike, the source gives them in different places. Square brackets hold non-standard residues; d marks the D form. Peptide text beside a SMILES is read from it. pGlu = O=C1CC[C@@H](C(=O)O)N1

How the values were obtained:
[1] = Pharmacokinetics after bolus intradermal injection in an adult rat; format: in vivo
Description: To improve their chemical stability and increase resistance to exopeptidases, peptides were synthesised as acetate salts of “capped” N-pyroglutamate, C-amide: NPL001 (SEQ ID NO:228), NPL002 (SEQ ID NO:229) and NPL003 (SEQ ID NO:230) 15mers or 16mers with glutamate at sites predicted to be deamidated by tTG. Indeed, capping extended the half-lives of peptides from 10-12 minutes for free peptides: NPL033, NPL038, and NPL034 (SEQ ID NOs:13, 320 and 321) after bolus intradermal injection of 0.9 mg in 0.1 ml in an adult rat to 26-28 minutes with N-pyroglutamate and C-amidation (SEQ ID NOs:228, 229 and 230) or 19-24 minutes with N-acetylation and C-amidation (SEQ ID NOs:231, 232, and 233), (see Table 4).

[2] = tested on: CD4+ T cells specific for NPL001; assay: Proliferation of transferred CFSE labelled NPL001-specific CD4+ T cells after subcutaneous administration (adoptive transfer model); format: in vivo; conditions: previous mouse studies
Text: The interaction between NPL001 (SEQ ID NO:228) and cognate T cells in vivo has been modelled by developing transgenic Black-6 mice expressing functional HLA-DR3 and -DQ2 (but not murine MHC Class II molecules) on antigen presenting cells (APC) who are transferred 3×10^6 CFSE labelled CD4^+ T cells specific for NPL001 (Chen Z., et al., 2006). The donor mouse (HH8-1) is transgenic for the NPL001-specific T cell receptor and human CD4 expressed on T cells, and also expresses HLA-DR3 DQ2 on APC. Overall 96% of the CD4^+ T cells in the HH8-1 mouse are clonal and specific for NPL001 (results not shown).
Four days after subcutaneous administration (in the hind foot hock) of an equimolar mixture of NPL001, NPL002 and NPL003 in 50 μl saline, spleen, gut-draining mesenteric lymph nodes (MLN) and the local draining popliteal lymph nodes (PLN) are harvested. Isolated mononuclear cells are stained for hCD4, and the T-cell receptor α- and β-chains expressed on the HH8-1 NPL001-specific T cells (Vα8 and Vβ8). Proliferation of transferred CFSE labelled cells is measured as the % CFSE^pos cells having undergone one or more division, as indicated by dilution of CFSE staining.

[3] = tested on: gluten peptide-specific T cells in PBMC from HLA-DQ2+ celiac disease donors; assay: IFNγ ELISpot of PBMC collected on day 6 after oral gluten challenge; format: cell-based, human
[4] = tested on: gluten peptide-specific T cells in PBMC from HLA-DQ2+ celiac disease donors; conditions: day-6 PBMC, cited from earlier work

Molecule: CC(C)C[C@H](NC(=O)[C@@H]1CCC(=O)N1)C(=O)N[C@@H](CCC(N)=O)C(=O)N1CCC[C@H]1C(=O)N[C@@H](Cc1ccccc1)C(=O)N1CCC[C@H]1C(=O)N[C@@H](CCC(N)=O)C(=O)N1CCC[C@H]1C(=O)N[C@@H](CCC(=O)O)C(=O)N[C@@H](CC(C)C)C(=O)N1CCC[C@H]1C(=O)N[C@@H](Cc1ccc(O)cc1)C(=O)N1CCC[C@H]1C(=O)N[C@@H](CCC(N)=O)C(=O)N1CCC[C@H]1C(=O)N[C@@H](CCC(N)=O)C(N)=O [NPL001, pyroELQPFPQPELPYPQPQ-amide] ([pGlu]LQPFPQPELPYPQPQ-NH2)
- T1/2 half life ([1]; adult rat, intradermal bolus injection 0.9 mg in 0.1 ml saline of equimolar mixture): T1/2 28.20 minutes
- AUC area under the curve (bioavailability) ([1]; rat, in vivo, 0.9 mg): AUC 89350
- half-life ([1]; rat, in vivo, intradermal bolus injection, 0.9 mg, adult rat, intradermal bolus injection 0.9 mg in 0.1 ml saline of equimolar mixture, read-out: T1/2 half life): 26 to 28 min
- bioactivity in vivo of a single dose [2]: bioactive in vivo

Molecule: NC(=O)CC[C@H](NC(=O)[C@H](Cc1c[nH]c2ccccc12)NC(=O)[C@@H]1CCCN1C(=O)[C@H](Cc1ccccc1)NC(=O)[C@@H]1CCCN1C(=O)[C@H](CCC(N)=O)NC(=O)[C@H](CCC(=O)O)NC(=O)[C@@H]1CCCN1C(=O)[C@H](CCC(N)=O)NC(=O)[C@@H]1CCCN1C(=O)[C@H](Cc1ccccc1)NC(=O)[C@@H]1CCCN1C(=O)[C@H](CCC(N)=O)NC(=O)[C@@H]1CCC(=O)N1)C(=O)N1CCC[C@H]1C(N)=O [NPL002, pyroEQPFPQPEQPFPWQP-amide] ([pGlu]QPFPQPEQPFPWQP-NH2)
- bioactivity after lysine-substitution of the central PQPEQPF sequence ([3]; 32 μg/ml, after wheat (n=7), barley (n=9) or rye challenge (n=10)): abolished the bioactivity
- effect of anti-HLA-DQ / -DR preincubation on IFNγ ELISpot response ([3]; PBMC from HLA DQA1*05 DQB1*02 homozygotes and heterozygotes, data not shown): anti-HLA-DQ but not -DR abolished
- AUC area under the curve (bioavailability) ([1]; rat, in vivo, 0.9 mg): AUC 81514
- T1/2 half life ([1]; rat, in vivo, 0.9 mg): T1/2 27.18 minutes
- half-life ([1]; rat, in vivo, 0.9 mg, T1/2 half life): 26 to 28 min

Molecule: QLQPFPQPELPYPQPQS (alpha-gliadin p57-73 QE65) [α-gliadin p57-73 QE65]
- IFNγ ELISpot response relative to tTG-treated gliadin in 3/17 donors ([4]; 3/17 donors): less than 5%
- Median IFNγ ELISpot response as percentage of that to tTG-treated gliadin (500 μg/ml) ([4]; n=17, range 0-155%): 51%
